Experimental data from ChEMBL document CHEMBL4376834, “Discovery of 4H-Chromen-4-one Derivatives as a New Class of Selective Rho Kinase (ROCK) Inhibitors, which Showed Potent Activity in ex Vivo Diabetic Retinopathy Models” (J Med Chem, 2019).

What was measured:
[1] = target: Calcium/calmodulin-dependent protein kinase kinase 2 (Homo sapiens, UniProt Q96RR4, T85S); experiment: Inhibition of recombinant full length human CaMKK2 T85S mutant using calmodulin as substrate incubated for 40 mins in presence of [gamma-33ATP] by radiometric scintillation counting analysis
[2] = target: Testis-specific serine/threonine-protein kinase 1 (Homo sapiens, UniProt Q9BXA7); experiment: Inhibition of recombinant full-length human TSSK1 using KKKVSRSGLYRSP as substrate incubated for 40 mins in presence of [gamma33P]ATP by radiometric scintillation counting analysis
[3] = target: Mitogen-activated protein kinase kinase kinase 20 (Homo sapiens, UniProt Q9NYL2); experiment: Inhibition of recombinant full-length human ZAK using MBP as substrate incubated for 40 mins in presence of [gamma33P]ATP by radiometric scintillation counting analysis
[4] = target: Calcium/calmodulin-dependent protein kinase type IV (Homo sapiens, UniProt Q16566); experiment: Inhibition of recombinant full length human CaMK4 using calmodulin as substrate incubated for 40 mins in presence of [gamma-33ATP] by radiometric scintillation counting analysis
TGF-beta receptor type-2 = TGF-beta receptor type-2 (Homo sapiens, UniProt P37173); experiment: Inhibition of recombinant human TGFBR2 (188 to end residues) using MBP as substrate incubated for 120 mins in presence of [gamma33P]ATP by radiometric scintillation counting analysis
[5] = target: cGMP-dependent protein kinase 2 (Homo sapiens, UniProt Q13237); experiment: Inhibition of recombinant full-length human PRKG2 using KKLRRTLSFAEPG as substrate incubated for 40 mins in presence of [gamma33P]ATP by radiometric scintillation counting analysis
[6] = target: Vascular endothelial growth factor receptor 1 (Homo sapiens, UniProt P17948); experiment: Inhibition of recombinant human FLT1 (783 to end residues) using KKKSPGEYVNIEF as substrate after 40 mins in presence of [gamma-33ATP] by radiometric scintillation counting analysis
[7] = target: Serine/threonine-protein kinase PLK3 (Homo sapiens, UniProt Q9H4B4); experiment: Inhibition of recombinant human Plk3 (19 to 301 residues) using casein as substrate incubated for 40 mins in presence of [gamma33P]ATP by radiometric scintillation counting analysis
[8] = target: Macrophage colony-stimulating factor 1 receptor (Homo sapiens, UniProt P07333, Y969C); experiment: Inhibition of recombinant human FMS Y969C mutant (538 to end residues) using EEEEYEEEEEEYY as substrate after 40 mins in presence of [gamma-33ATP] by radiometric scintillation counting analysis
[9] = target: Proto-oncogene tyrosine-protein kinase receptor Ret (Homo sapiens, UniProt P07949); experiment: Inhibition of recombinant human Ret (658 to end residues) using KKKSPGEYVNIEF as substrate incubated for 40 mins in presence of [gamma33P]ATP by radiometric scintillation counting analysis
[10] = target: Tyrosine-protein kinase Lck (Homo sapiens, UniProt P06239); experiment: Inhibition of recombinant full length activated human LCK using […] as substrate after 40 mins in presence of [gamma-33ATP] by radiometric scintillation counting analysis
[11] = target: Protein-tyrosine kinase 6 (Homo sapiens, UniProt Q13882); experiment: Inhibition of recombinant full length human BRK using poly(Glu, Tyr) 4:1 as substrate incubated for 40 mins in presence of [gamma-33ATP] by radiometric scintillation counting analysis
[12] = target: T1, Protein kinase C beta type (Homo sapiens, UniProt P05771); experiment: Inhibition of recombinant human PKCbeta2 (2 to end residues) using histone H1 as substrate incubated for 40 mins in presence of [gamma33P]ATP by radiometric scintillation counting analysis
[13] = target: Dual specificity tyrosine-phosphorylation-regulated kinase 1A (Homo sapiens, UniProt Q13627); experiment: Inhibition of recombinant full length human DYRK1A using RRRFRPASPLRGPP as substrate after 40 mins in presence of [gamma-33ATP] by radiometric scintillation counting analysis
[14] = target: Serine/threonine-protein kinase PAK 5 (Homo sapiens, UniProt Q9P286); experiment: Inhibition of recombinant human PAK5 (425 to end residues) using RRRLSFAEPG as substrate measured after 40 mins in presence of [gamma33P]ATP by radiometric scintillation counting analysis
[15] = Inhibition of recombinant human PKCeta V108L/G109R/L392Q triple mutant (2 to end residues) using ERMRPRKRQGSVRR as substrate incubated for 40 mins in presence of [gamma33P]ATP by radiometric scintillation counting analysis
[16] = target: Mast/stem cell growth factor receptor Kit (Homo sapiens, UniProt P10721, D816V); experiment: Inhibition of recombinant human C-Kit D816V mutant (544 to end residues) using poly(Glu, Tyr) 4:1 as substrate incubated 40 mins in presence of [gamma-33ATP] by radiometric scintillation counting analysis
[17] = target: Vascular endothelial growth factor receptor 2 (Homo sapiens, UniProt P35968); experiment: Inhibition of human recombinant KDR (790 to end residues) using myelin basic protein as substrate after 40 mins by [gamma-33ATP] by radiometric scintillation counting analysis
[18] = target: T1, Protein kinase C beta type; experiment: Inhibition of recombinant human PKCbeta1 (2 to end residues) using histone H1 as substrate incubated for 40 mins in presence of [gamma33P]ATP by radiometric scintillation counting analysis
[19] = target: Eukaryotic translation initiation factor 2-alpha kinase 1 (Homo sapiens, UniProt Q9BQI3); experiment: Inhibition of human recombinant HRI (140 to end residues) using RSRSRSRSRSRSR as substrate after 120 mins by [gamma-33ATP] radiometric assay
[20] = target: Leukocyte tyrosine kinase receptor (Homo sapiens, UniProt P29376); experiment: Inhibition of recombinant human LTK (450 to end residues) using GEEPLYWSFPAKK as substrate after 40 mins in presence of [gamma-33ATP] by radiometric scintillation counting analysis
[21] = target: Cytoplasmic tyrosine-protein kinase BMX (Homo sapiens, UniProt P51813); experiment: Inhibition of recombinant full length human BMX using poly(Glu, Tyr) 4:1 as substrate incubated for 40 mins in presence of [gamma-33ATP] by radiometric scintillation counting analysis
[22] = target: TRAF2 and NCK-interacting protein kinase (Homo sapiens, UniProt Q9UKE5); experiment: Inhibition of human TNIK (1 to 367 residues) using RLGRDKYKTLRQI as substrate incubated for 40 mins in presence of [gamma33P]ATP by radiometric scintillation counting analysis
[23] = target: Mitogen-activated protein kinase kinase kinase kinase 1 (Homo sapiens, UniProt Q92918); experiment: Inhibition of human recombinant HPK1 (1 to 346 residues) using myelin basic protein as substrate after 40 mins by [gamma-33ATP] radiometric assay
Ephrin type-A receptor 7 = Ephrin type-A receptor 7 (Homo sapiens, UniProt Q15375); experiment: Inhibition of recombinant human EphA7 (613 to 909 residues) using KTFCGTPEYLAPE as substrate measured after 40 mins in presence of [gamma33ATP] by radiometric scintillation counting analysis
[24] = target: Serine/threonine-protein kinase Chk1 (Homo sapiens, UniProt O14757); experiment: Inhibition of recombinant full length human CHK1 using KKKVSRSGLYRSP as substrate incubated for 40 mins in presence of [gamma-33ATP] by radiometric scintillation counting analysis

Measured: IC50

T1 sequence (P05771 whole entry): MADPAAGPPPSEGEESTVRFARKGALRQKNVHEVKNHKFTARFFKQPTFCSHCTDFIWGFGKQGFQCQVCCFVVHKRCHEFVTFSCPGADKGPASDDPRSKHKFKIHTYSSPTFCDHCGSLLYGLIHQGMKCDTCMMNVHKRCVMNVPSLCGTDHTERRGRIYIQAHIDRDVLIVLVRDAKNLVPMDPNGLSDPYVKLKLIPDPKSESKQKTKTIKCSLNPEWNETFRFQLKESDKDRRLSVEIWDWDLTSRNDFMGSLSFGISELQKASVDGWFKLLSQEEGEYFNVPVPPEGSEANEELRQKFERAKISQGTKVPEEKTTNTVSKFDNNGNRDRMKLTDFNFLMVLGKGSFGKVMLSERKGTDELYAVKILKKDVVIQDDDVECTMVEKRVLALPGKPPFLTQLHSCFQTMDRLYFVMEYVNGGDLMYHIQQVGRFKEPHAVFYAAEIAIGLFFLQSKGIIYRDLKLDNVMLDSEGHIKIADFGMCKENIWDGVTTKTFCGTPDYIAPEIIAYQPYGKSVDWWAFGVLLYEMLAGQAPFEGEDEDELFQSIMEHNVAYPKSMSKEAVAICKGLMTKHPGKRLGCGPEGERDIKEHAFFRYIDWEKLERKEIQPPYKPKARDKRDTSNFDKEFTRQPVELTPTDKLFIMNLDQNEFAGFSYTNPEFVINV
Mitogen-activated protein kinase kinase kinase kinase 1, sequence (Q92918 whole entry, the tested form may be a part): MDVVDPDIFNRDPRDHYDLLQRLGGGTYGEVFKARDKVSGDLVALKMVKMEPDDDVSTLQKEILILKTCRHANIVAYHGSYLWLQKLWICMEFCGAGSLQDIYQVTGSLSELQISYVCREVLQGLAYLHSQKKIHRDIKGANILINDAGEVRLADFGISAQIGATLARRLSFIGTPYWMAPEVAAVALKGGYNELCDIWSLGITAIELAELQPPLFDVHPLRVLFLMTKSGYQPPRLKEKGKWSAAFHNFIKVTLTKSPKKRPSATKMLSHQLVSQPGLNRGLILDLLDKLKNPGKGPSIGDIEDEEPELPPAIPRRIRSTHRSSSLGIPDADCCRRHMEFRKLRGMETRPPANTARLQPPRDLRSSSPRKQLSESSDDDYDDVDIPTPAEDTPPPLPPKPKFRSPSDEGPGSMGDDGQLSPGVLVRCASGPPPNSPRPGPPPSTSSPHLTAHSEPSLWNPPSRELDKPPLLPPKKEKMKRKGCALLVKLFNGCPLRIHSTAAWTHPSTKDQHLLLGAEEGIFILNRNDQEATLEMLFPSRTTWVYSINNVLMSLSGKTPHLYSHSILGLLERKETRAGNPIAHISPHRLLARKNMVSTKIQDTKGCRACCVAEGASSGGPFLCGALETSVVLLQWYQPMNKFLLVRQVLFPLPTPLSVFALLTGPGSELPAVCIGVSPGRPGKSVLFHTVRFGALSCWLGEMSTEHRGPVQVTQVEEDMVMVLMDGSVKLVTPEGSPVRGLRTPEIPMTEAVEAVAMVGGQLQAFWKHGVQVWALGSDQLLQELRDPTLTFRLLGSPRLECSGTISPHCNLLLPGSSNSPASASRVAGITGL
Vascular endothelial growth factor receptor 2, sequence (P35968 whole entry): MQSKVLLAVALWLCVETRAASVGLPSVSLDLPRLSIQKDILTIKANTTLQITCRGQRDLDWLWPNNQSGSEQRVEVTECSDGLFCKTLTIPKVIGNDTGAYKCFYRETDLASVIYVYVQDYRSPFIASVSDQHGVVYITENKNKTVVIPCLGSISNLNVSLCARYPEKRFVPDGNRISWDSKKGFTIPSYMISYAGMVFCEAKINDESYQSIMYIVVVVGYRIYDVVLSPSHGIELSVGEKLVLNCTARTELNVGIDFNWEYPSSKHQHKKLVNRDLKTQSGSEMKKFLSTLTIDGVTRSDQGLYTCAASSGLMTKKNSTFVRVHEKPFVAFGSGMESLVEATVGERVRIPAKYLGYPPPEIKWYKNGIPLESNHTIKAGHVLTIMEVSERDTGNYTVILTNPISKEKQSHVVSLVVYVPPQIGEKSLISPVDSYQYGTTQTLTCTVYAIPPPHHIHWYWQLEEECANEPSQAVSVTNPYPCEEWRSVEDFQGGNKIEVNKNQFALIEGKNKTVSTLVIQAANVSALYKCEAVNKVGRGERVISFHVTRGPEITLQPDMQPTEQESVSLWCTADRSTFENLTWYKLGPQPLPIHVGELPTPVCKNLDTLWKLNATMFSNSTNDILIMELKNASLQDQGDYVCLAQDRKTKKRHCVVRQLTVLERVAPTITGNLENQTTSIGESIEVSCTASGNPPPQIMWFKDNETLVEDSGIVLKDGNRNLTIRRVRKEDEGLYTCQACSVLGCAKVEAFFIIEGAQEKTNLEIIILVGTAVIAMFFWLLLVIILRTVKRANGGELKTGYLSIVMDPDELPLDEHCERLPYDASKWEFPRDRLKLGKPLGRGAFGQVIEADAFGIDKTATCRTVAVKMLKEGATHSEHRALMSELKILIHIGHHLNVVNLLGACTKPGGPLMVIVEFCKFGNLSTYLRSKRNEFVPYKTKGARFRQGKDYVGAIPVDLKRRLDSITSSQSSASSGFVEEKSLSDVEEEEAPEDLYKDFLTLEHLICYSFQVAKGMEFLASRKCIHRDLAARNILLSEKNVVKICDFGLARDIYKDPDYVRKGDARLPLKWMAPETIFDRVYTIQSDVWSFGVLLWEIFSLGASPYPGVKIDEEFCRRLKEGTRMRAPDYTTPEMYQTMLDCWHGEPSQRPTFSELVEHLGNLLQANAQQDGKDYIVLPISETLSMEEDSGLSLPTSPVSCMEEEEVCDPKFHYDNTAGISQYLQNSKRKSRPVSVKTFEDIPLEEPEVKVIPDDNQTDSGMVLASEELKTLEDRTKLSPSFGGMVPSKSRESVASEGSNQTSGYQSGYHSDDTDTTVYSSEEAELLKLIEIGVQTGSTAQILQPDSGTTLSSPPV
TRAF2 and NCK-interacting protein kinase, sequence (Q9UKE5 whole entry, the tested form may be a part): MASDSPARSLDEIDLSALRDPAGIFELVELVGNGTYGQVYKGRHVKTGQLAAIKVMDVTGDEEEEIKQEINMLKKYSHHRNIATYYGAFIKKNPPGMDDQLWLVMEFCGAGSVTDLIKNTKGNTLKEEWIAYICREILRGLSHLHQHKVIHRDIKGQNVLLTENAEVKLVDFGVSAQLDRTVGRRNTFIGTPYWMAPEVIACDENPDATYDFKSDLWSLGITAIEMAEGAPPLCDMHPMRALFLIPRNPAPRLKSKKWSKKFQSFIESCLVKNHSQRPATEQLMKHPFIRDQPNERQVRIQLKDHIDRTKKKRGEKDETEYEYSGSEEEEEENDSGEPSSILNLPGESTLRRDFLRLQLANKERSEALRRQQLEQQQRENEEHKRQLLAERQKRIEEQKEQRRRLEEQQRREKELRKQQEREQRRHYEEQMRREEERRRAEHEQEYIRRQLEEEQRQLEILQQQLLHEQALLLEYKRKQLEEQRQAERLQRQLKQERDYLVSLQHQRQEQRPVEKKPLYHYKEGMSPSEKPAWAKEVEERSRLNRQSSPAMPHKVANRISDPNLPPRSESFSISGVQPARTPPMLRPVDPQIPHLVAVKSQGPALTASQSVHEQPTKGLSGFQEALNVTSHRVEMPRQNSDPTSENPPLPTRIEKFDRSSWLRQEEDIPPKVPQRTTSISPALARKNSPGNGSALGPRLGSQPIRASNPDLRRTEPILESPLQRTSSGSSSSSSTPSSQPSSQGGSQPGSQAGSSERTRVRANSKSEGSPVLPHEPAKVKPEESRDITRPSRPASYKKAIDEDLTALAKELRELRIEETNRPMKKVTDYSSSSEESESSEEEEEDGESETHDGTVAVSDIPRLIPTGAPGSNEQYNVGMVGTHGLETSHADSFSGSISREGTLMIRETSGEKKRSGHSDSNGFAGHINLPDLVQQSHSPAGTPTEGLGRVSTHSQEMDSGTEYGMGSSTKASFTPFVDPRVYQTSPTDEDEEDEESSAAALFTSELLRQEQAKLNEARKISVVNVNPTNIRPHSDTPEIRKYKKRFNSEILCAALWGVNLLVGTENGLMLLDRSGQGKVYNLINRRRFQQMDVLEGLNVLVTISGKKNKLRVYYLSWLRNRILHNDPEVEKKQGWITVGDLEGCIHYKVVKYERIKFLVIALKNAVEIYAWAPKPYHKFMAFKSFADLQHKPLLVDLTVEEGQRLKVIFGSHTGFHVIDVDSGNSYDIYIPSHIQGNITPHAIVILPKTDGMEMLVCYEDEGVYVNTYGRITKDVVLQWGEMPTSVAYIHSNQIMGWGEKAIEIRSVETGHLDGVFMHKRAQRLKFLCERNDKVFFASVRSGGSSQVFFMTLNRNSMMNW
Testis-specific serine/threonine-protein kinase 1, sequence (Q9BXA7 whole entry): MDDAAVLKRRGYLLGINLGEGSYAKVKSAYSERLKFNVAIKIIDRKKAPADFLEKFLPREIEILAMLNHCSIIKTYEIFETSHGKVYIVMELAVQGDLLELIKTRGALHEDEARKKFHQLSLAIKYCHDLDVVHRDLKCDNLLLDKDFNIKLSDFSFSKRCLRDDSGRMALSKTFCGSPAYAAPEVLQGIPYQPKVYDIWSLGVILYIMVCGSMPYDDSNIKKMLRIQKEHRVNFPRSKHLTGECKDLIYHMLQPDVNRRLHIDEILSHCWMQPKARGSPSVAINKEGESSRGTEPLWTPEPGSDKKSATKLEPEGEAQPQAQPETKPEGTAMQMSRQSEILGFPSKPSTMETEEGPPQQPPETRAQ
Serine/threonine-protein kinase Chk1, sequence (O14757 whole entry): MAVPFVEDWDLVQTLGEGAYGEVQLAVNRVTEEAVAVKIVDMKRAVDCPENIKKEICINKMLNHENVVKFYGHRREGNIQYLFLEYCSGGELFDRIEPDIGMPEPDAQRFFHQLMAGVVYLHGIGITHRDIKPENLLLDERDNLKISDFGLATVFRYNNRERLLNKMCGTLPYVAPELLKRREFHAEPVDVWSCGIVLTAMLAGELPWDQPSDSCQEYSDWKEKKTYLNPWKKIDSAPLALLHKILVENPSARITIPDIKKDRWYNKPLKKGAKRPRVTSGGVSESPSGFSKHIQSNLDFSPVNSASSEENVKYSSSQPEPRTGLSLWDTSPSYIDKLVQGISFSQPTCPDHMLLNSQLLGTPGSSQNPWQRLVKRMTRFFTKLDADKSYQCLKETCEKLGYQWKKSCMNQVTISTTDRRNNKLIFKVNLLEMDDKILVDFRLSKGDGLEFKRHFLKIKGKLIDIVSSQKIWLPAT

CN(C)c1ccc(C(=O)Nc2cccc(NC(=O)COc3ccc4c(=O)ccoc4c3)c2)cc1
> 10 µM: [1] | [2] | [3] | [4] | TGF-beta receptor type-2 | [5] | [6] | [7] | [8] | [9] | [10] | [11] | [12] | [13] | [14] | [15] | [16] | [17] | [18] | [19] | [20] | [21] | [22] | [23] | Ephrin type-A receptor 7 | [24]
